This is an account of results in ChEMBL document CHEMBL3045943, “Novel N-aryl(alkaryl)-2-[(3-R-2-oxo-2H-[1,2,4]triazino[2,3-c]quinazoline-6-yl)thio]acetamides: synthesis, cytotoxicity, anticancer activity, COMPARE analysis and docking” (2013).

Holding throughout (assay type): functional
The subject of one experiment is PC-3. Briefly: Cytotoxicity against Homo sapiens (human) PC3 cells assessed as cell growth at 10 uM after 48 hr by SRB assay relative to control. To be noted: PC-3, 48 h, read-out: Activity. On the technique in general: In SRB staining, fixed cells bind dye roughly in proportion to their protein.
The test system of another experiment is MCF7. Briefly: Cytotoxicity against Homo sapiens (human) MCF7 cells assessed as cell growth at 10 uM after 48 hr by SRB assay relative to control. The conditions noted are these: MCF7, 48 h, read-out: Activity.
A further experiment relates to RXF 393. The experiment in a line: Cytotoxicity against Homo sapiens (human) RXF393 cells assessed as cell growth at 10 uM after 48 hr by SRB assay relative to control. The conditions noted are these: RXF 393, 48 h, read-out: Activity.
For a further experiment, the system named is 786-0. The experiment in a line: Cytotoxicity against Homo sapiens (human) 786-0 cells assessed as cell growth at 10 uM after 48 hr by SRB assay relative to control. To be noted: 786-0, 48 h, read-out: Activity.
For another experiment, the system named is OVCAR-8. Briefly: Cytotoxicity against Homo sapiens (human) OVCAR8 cells assessed as cell growth at 10 uM after 48 hr by SRB assay relative to control. To be noted: OVCAR-8, 48 h, read-out: Activity.
Another experiment concerns OVCAR-4. The experiment in a line: Cytotoxicity against Homo sapiens (human) OVCAR4 cells assessed as cell growth at 10 uM after 48 hr by SRB assay relative to control. To be noted: OVCAR-4, 48 h, read-out: Activity.
For another experiment, the system named is UACC-257. Briefly: Cytotoxicity against Homo sapiens (human) UACC257 cells assessed as cell growth at 10 uM after 48 hr by SRB assay relative to control. To be noted: UACC-257, 48 h, read-out: Activity.
A further experiment has as its system SK-MEL-5. The experiment in a line: Cytotoxicity against Homo sapiens (human) SK-MEL-5 cells assessed as cell growth at 10 uM after 48 hr by SRB assay relative to control. The conditions noted are these: SK-MEL-5, 48 h, read-out: Activity.
The next experiment concerns MDA-MB-435. The experiment in a line: Cytotoxicity against Homo sapiens (human) MDA-MB-435 cells assessed as cell growth at 10 uM after 48 hr by SRB assay relative to control. To be noted: MDA-MB-435, 48 h, read-out: Activity.
Another experiment concerns Malme-3M. Briefly: Cytotoxicity against Homo sapiens (human) MALME-3M cells assessed as cell growth at 10 uM after 48 hr by SRB assay relative to control. To be noted: read-out: Activity.
Another experiment relates to LOX IMVI. Briefly: Cytotoxicity against Homo sapiens (human) LOXIMVI cells assessed as cell growth at 10 uM after 48 hr by SRB assay relative to control. To be noted: read-out: Activity.
A further experiment deals with NCI-H460. Briefly: Cytotoxicity against Homo sapiens (human) NCI-H460 cells assessed as cell growth at 10 uM after 48 hr by SRB assay relative to control. The conditions noted are these: NCI-H460, 48 h, read-out: Activity.
Experiment [1] relates to Photobacterium leiognathi. Briefly: Growth inhibition of Photobacterium leiognathi Sh1 assessed as bio-luminescence at 0.1 mg/ml after 16 to 18 hr by chronic action test relative to control. Further details: scale not given: the % may be the effect or the level left.
The test system of experiment [2] is Photobacterium leiognathi. Briefly: Growth inhibition of Photobacterium leiognathi Sh1 assessed as bio-luminescence at 0.025 mg/ml after 16 to 18 hr by chronic action test relative to control. The arrangement: scale not given: the % may be the effect or the level left.
The subject of experiment [3] is Photobacterium leiognathi. Briefly: Growth inhibition of Photobacterium leiognathi Sh1 assessed as bio-luminescence at 0.25 mg/ml after 10 min by acute action test relative to control. The arrangement: scale not given: the % may be the effect or the level left.
The test system of experiment [4] is Photobacterium leiognathi. Briefly: Growth inhibition of Photobacterium leiognathi Sh1 assessed as bio-luminescence at 0.1 mg/ml after 10 min by acute action test relative to control. Further details: scale not given: the % may be the effect or the level left.
The subject of experiment [5] is Photobacterium leiognathi. The experiment in a line: Growth inhibition of Photobacterium leiognathi Sh1 assessed as bio-luminescence at 0.025 mg/ml after 10 min by acute action test relative to control. Further details: scale not given: the % may be the effect or the level left.
Another experiment has as its system BT-549. The experiment in a line: Cytotoxicity against Homo sapiens (human) BT549 cells assessed as cell growth at 10 uM after 48 hr by SRB assay relative to control. To be noted: BT-549, 48 h, read-out: Activity.
The test system of the next experiment is Hs-578T. Briefly: Cytotoxicity against Homo sapiens (human) Hs 578T cells assessed as cell growth at 10 uM after 48 hr by SRB assay relative to control. To be noted: read-out: Activity.
The next experiment deals with MDA-MB-231. Briefly: Cytotoxicity against Homo sapiens (human) MDA-MB-231 cells assessed as cell growth at 10 uM after 48 hr by SRB assay relative to control. To be noted: MDA-MB-231, 48 h, read-out: Activity.
A further experiment relates to UO-31. The experiment in a line: Cytotoxicity against Homo sapiens (human) UO31 cells assessed as cell growth at 10 uM after 48 hr by SRB assay relative to control. To be noted: UO-31, 48 h, read-out: Activity.
The next experiment deals with SN12C. Briefly: Cytotoxicity against Homo sapiens (human) SN12C cells assessed as cell growth at 10 uM after 48 hr by SRB assay relative to control. To be noted: read-out: Activity.
For a further experiment, the system named is ACHN. The experiment in a line: Cytotoxicity against Homo sapiens (human) ACHN cells assessed as cell growth at 10 uM after 48 hr by SRB assay relative to control. To be noted: read-out: Activity.
Another experiment concerns A498. The experiment in a line: Cytotoxicity against Homo sapiens (human) A498 cells assessed as cell growth at 10 uM after 48 hr by SRB assay relative to control. The conditions noted are these: A498, 48 h, read-out: Activity.
The nature of experiment [6]: Cytotoxicity against Homo sapiens (human) NCI-ADR-RES cells assessed as cell growth at 10 uM after 48 hr by SRB assay relative to control. The conditions noted are these: read-out: Activity.
The next experiment relates to HT-29. The experiment in a line: Cytotoxicity against Homo sapiens (human) HT-29 cells assessed as cell growth at 10 uM after 48 hr by SRB assay relative to control. To be noted: HT-29, 48 h, read-out: Activity.
The next experiment relates to HCT-116. The experiment in a line: Cytotoxicity against Homo sapiens (human) HCT116 cells assessed as cell growth at 10 uM after 48 hr by SRB assay relative to control. The conditions noted are these: HCT-116, 48 h, read-out: Activity.
A further experiment concerns SF-539. Briefly: Cytotoxicity against Homo sapiens (human) SF539 cells assessed as cell growth at 10 uM after 48 hr by SRB assay relative to control. The conditions noted are these: SF-539, 48 h, read-out: Activity.
In the next experiment the test system is HOP-92. Briefly: Cytotoxicity against Homo sapiens (human) HOP92 cells assessed as cell growth at 10 uM after 48 hr by SRB assay relative to control. The conditions noted are these: HOP-92, 48 h, read-out: Activity.
For the next experiment, the system named is SR. Briefly: Cytotoxicity against Homo sapiens (human) SR cells assessed as cell growth at 10 uM after 48 hr by SRB assay relative to control. The conditions noted are these: read-out: Activity.
The next experiment has as its system U-251. The experiment in a line: Cytotoxicity against Homo sapiens (human) U251 cells assessed as cell growth at 10 uM after 48 hr by SRB assay relative to control. To be noted: U-251, 48 h, read-out: Activity.
The test system of another experiment is SNB-75. Briefly: Cytotoxicity against Homo sapiens (human) SNB75 cells assessed as cell growth at 10 uM after 48 hr by SRB assay relative to control. To be noted: SNB-75, 48 h, read-out: Activity.
In experiment [7] the test system is Photobacterium leiognathi. The experiment in a line: Growth inhibition of Photobacterium leiognathi Sh1 assessed as bio-luminescence at 0.25 mg/ml after 16 to 18 hr by chronic action test relative to control. Further details: scale not given: the % may be the effect or the level left.
The next experiment relates to SNB-19. Briefly: Cytotoxicity against Homo sapiens (human) SNB19 cells assessed as cell growth at 10 uM after 48 hr by SRB assay relative to control. To be noted: SNB-19, 48 h, read-out: Activity.

On to `Cc1ccc(CNC(=O)CSc2nc3ccccc3c3nc(=O)c(-c4ccccc4)nn23)cc1`, for which the growth at 10 µM with PC-3 turned out to be 83%; in the experiment on MCF7, 79.1%; in the experiment with RXF 393, 77.2%; in the experiment with 786-0, 80.2%; in the experiment on OVCAR-8, 60.9%; in the experiment with OVCAR-4, 74.9%. The growth at 10 µM amounted to 71.1% with UACC-257; 81.8% in the experiment on SK-MEL-5; 67.7% in the experiment with MDA-MB-435; 77.2% in the experiment on Malme-3M; 78.6% with LOX IMVI; 72.1% in the experiment with NCI-H460. Further, the growth at 10 µM with BT-549 was 26.9%; in the experiment with Hs-578T, 62.3%; in the experiment on MDA-MB-231, 70.5%; with UO-31, 61.9%; with SN12C it was 78.6%; in the experiment with ACHN it was 85.8%. For the same compound, the growth at 10 µM is 75.5% with A498; 61.4% in [6]; 78.8% with HT-29; 32.5% in the experiment with HCT-116; 48% in the experiment with SF-539; 85.6% with HOP-92. The growth at 10 µM in the experiment on SR turned out to be 71.4%; in the experiment on U-251 it was 63%; in the experiment with SNB-75, 62.5%. In addition, the Activity came out at 112% in experiment [1]; 80% in experiment [2]; 145.5% in experiment [3]; 106% in experiment [4]; 84.6% in [5]; 140% in experiment [7].
For `COc1ccc(-c2nn3c(SCC(=O)Nc4ccc(C)cc4)nc4ccccc4c3nc2=O)cc1`, the Activity came to 76.8% in [1]; 69.8% in [2]; 146.7% in experiment [3]; 120% in [4]; 112.5% in experiment [5]; 27.3% in experiment [7]. Moreover, the growth at 10 µM in the experiment on SNB-19 stood at 59%; in the experiment with U-251, 24.4%; with SNB-75, 55.9%.
